According to patent US11096985B2, “Antimicrobial peptides, their variants and uses” (priority 2015, dated 2021):
Where a SMILES comes first, the peptide text is derived from it. [ ]: non-standard residue; d: D form.

Legend:
[1] = test system: clinical strains of C. quillermondiae; experiment: MIC, clinical yeast strains, C. quillermondiae; assay type: cell-based; details: C. quillermondiae clinical yeast strain 1
Description: (§1) Minimum inhibition concentrations (MICs) were determined against Escherichia coli (ATCC 25922), Staphylococcus aureus (ATCC 25923), Klebsiella pneumoniae (ATCC 10031) and Pseudomonas aeruginosa (ATCC 27853). Also clinical strains of E. coli, K. pneumoniae, E. cloacae, P. aeruginosa, Serratia marcescens, Proteus mirabilis, S. pneumoniae, Acinetobacter baumannii, A. johnsonii and S. aureus were used for MICs assays. Additionally, clinical strains of yeast including Candida albicans, C. glabrata, C. parapsilosis and C. quillermondiae were used. The susceptibility of these microorganisms to Chain peptides were determined using micro broth dilution assay. Colonies of the respective microorganism from Muller Hinton (MH) agar plates incubated overnight were suspended in MH broth media and final concentration of microorganism was adjusted to 5.0×10^5 cfu/ml. An aliquot of 10 μl of each Chain peptide, or gentamicin, tetracycline as reference antibiotics were added in differing concentrations along with 90 μl of bacterial suspension to 96 well polypropylene plates and incubated at 37° C. for 20 to 24 hours. Concentrations of Chain peptides and reference antibiotics ranged from 0.125 to 128 μg/ml and the MICs were recorded as the lowest concentration with no visual growth of bacteria. Similarly, antifungal MICs were tested in Potato dextrose broth.
(§2) Clinical strains of yeasts including Candida albicans, C. glabrata, C. parapsilosis and C. quillermondiae were also tested with the 12 Chain peptides. The minimum inhibitory concentration (MICs) varied between these peptides and are presented in Tables 4a, 4b, 4c and 5a, 5b, 5c. Peptides Chain 105, 201 and 308 are broad spectrum antimicrobials with MICs between 0.5-32 μg/ml against all the bacteria and yeasts tested, except Serratia marcescens and Proteus mirabilis, against which the MICs were between 64-128 μg/ml. Peptide Chain 306 has narrow spectrum activity against E.coli at 1 μg/ml and for the rest of the bacterial strains at >32 μg/ml (FIG. 10).

[2] = test system: clinical strains of C. parapsilosis; experiment: MIC, clinical yeast strains, C. parapsilosis; assay type: cell-based, Candida parapsilosis; design: unit: μg/ml
Description: as §1, §2

[3] = test system: clinical strains of Candida albicans; experiment: MIC, clinical yeast strains, Candida albicans; assay type: cell-based; design: unit: μg/ml
Description: as §1, §2

[4] = test system: clinical strains of C. glabrata; experiment: MIC, clinical yeast strains, C. glabrata; assay type: cell-based, Candida glabrata; design: unit: μg/ml
Description: as §1, §2

[5] = test system: S. aureus COL (MRSA); experiment: Synergistic activity with Ertapenem (4 μg/ml) against MRSA, MIC; assay type: cell-based, Staphylococcus aureus; details: S. aureus COL, together with 4 μg/ml Ertapenem (synergistic activity)
Description: as §1
(§3) Peptides Chain 104, Chain 105, Chain 201, Chain 308, Chain 310 were tested against antibiotic-sensitive strains of S. aureus RN4220 and methicillin resistant strains of S. aureus COL (MRSA). Chain peptides comprising of either L- or D-form amino acids were tested against these bacteria, and the D-form peptides were found have better activity compared to L-form (Table 6). Synergistic activity of chain peptides along with Ertapenem (4 μg/ml) was tested to know whether it will influence the activity against MRSA strains. […] Chain 310 has the best antibacterial activity against the MRSA strains with a MIC of 0.06 & 0.03 μg/ml along with Ertapenem (4 μg/ml) for both forms of L and D-peptides (Table 6).

[6] = test system: S. aureus RN4220; assay type: cell-based, Staphylococcus aureus; details: antibiotic sensitive strain S. aureus RN4220
Description: as §1, §3

[7] = C. parapsilosis clinical yeast strain 1
[8] = C. parapsilosis clinical yeast strain 2
[9] = C. parapsilosis clinical yeast strain 3
[10] = C. parapsilosis clinical yeast strain 4
[11] = Candida albicans clinical yeast strain 1
[12] = Candida albicans clinical yeast strain 2
[13] = Candida albicans clinical yeast strain 3
[14] = Candida albicans clinical yeast strain 4
[15] = Candida albicans clinical yeast strain 5
[16] = C. glabrata clinical yeast strain 1
[17] = C. glabrata clinical yeast strain 2
[18] = C. glabrata clinical yeast strain 3
[19] = C. glabrata clinical yeast strain 4

## CC(C)C[C@@H](NC(=O)[C@@H](CCCCN)NC(=O)[C@@H](Cc1c[nH]c2ccccc12)NC(=O)[C@@H](CCCCN)NC(=O)[C@@H](C)NC(=O)[C@@H](Cc1c[nH]cn1)NC(=O)[C@@H](CC(C)C)NC(=O)[C@@H](CCCNC(=N)N)NC(=O)[C@@H](Cc1c[nH]c2ccccc12)NC(=O)[C@H](N)Cc1c[nH]c2ccccc12)C(=O)N[C@H](Cc1c[nH]c2ccccc12)C(=O)O [Chain109D] (H-[dW][dW][dR][dL][dH][dA][dK][dW][dK][dL][dW]-OH)
[1]
  Minimum inhibitory concentration: 128
[2]; [7]
  Minimum inhibitory concentration: 128
[2]; [8]
  Minimum inhibitory concentration: 128
[2]; [9]
  Minimum inhibitory concentration: 128
[2]; [10]
  Minimum inhibitory concentration: 8
[3]; [11]
  Minimum inhibitory concentration: 128
[3]; [12]
  Minimum inhibitory concentration: 128
[3]; [13]
  Minimum inhibitory concentration: 128
[3]; [14]
  Minimum inhibitory concentration: 128
[3]; [15]
  Minimum inhibitory concentration: 128
[4]; [16]
  Minimum inhibitory concentration: 128
[4]; [17]
  Minimum inhibitory concentration: 128
[4]; [18]
  Minimum inhibitory concentration: 16
[4]; [19]
  Minimum inhibitory concentration: 64

## CC[C@H](C)[C@H](NC(=O)[C@H](CCSC)NC(=O)[C@H](C)NC(=O)[C@H](CCCNC(=N)N)NC(=O)[C@H](Cc1c[nH]c2ccccc12)NC(=O)[C@H](CCCCN)NC(=O)[C@@H](N)CCCNC(=N)N)C(=O)N[C@@H](CCCNC(=N)N)C(=O)N[C@@H](CC(C)C)C(=O)N[C@@H](Cc1c[nH]cn1)C(=O)N[C@@H](C)C(=O)N[C@@H](CCCCN)C(=O)N[C@@H](Cc1c[nH]c2ccccc12)C(=O)N[C@@H](CC(C)C)C(=O)N[C@@H](CCCNC(=N)N)C(=O)N[C@@H](CCCCN)C(=O)O [Compound 105] (H-RKWRAMIRLHAKWLRK-OH)
[5]
  Minimum inhibitory concentration (MIC), S. aureus COL + 4 μg/ml Ertapenem: 0.5 µg/mL
[6]
  Minimum inhibitory concentration (MIC), S. aureus RN4220: >64 µg/mL

## CC[C@H](C)[C@H](NC(=O)[C@H](CCSC)NC(=O)[C@H](C)NC(=O)[C@H](CCCNC(=N)N)NC(=O)[C@H](Cc1c[nH]c2ccccc12)NC(=O)[C@H](CCCCN)NC(=O)[C@@H](N)CCCNC(=N)N)C(=O)N[C@@H](CCCNC(=N)N)C(=O)N[C@@H](CC(C)C)C(=O)N[C@@H](Cc1c[nH]cn1)C(=O)N[C@@H](C)C(=O)N[C@@H](CCCCN)C(=O)N[C@@H](CCCNC(=N)N)C(=O)N[C@@H](CC(C)C)C(=O)N[C@@H](CCCNC(=N)N)C(=O)N[C@@H](CCCCN)C(=O)O [Compound 104] (H-RKWRAMIRLHAKRLRK-OH)
[5]
  Minimum inhibitory concentration (MIC), S. aureus COL + 4 μg/ml Ertapenem: 0.25 µg/mL
[6]
  Minimum inhibitory concentration (MIC), S. aureus RN4220: >64 µg/mL

## CC[C@@H](C)[C@@H](NC(=O)[C@@H](Cc1c[nH]c2ccccc12)NC(=O)[C@H](N)CCCCN)C(=O)N[C@@H](C(=O)N[C@H](Cc1c[nH]c2ccccc12)C(=O)N[C@H](CCCNC(=N)N)C(=O)N[C@H](Cc1c[nH]c2ccccc12)C(=O)N[C@H](CCCNC(=N)N)C(=O)N[C@H](Cc1ccccc1)C(=O)N[C@H](CCCCN)C(=O)N[C@H](CCCNC(=N)N)C(=O)O)C(C)C [201 D] (H-[dK][dW][dI][dV][dW][dR][dW][dR][dF][dK][dR]-OH)
[5]
  Minimum inhibitory concentration (MIC), S. aureus COL + 4 μg/ml Ertapenem: 1 µg/mL
[6]
  Minimum inhibitory concentration (MIC), S. aureus RN4220: 2 µg/mL

## CC[C@@H](C)[C@@H](NC(=O)[C@@H](CCSC)NC(=O)[C@@H](C)NC(=O)[C@@H](CCCNC(=N)N)NC(=O)[C@@H](Cc1c[nH]c2ccccc12)NC(=O)[C@@H](CCCCN)NC(=O)[C@H](N)CCCNC(=N)N)C(=O)N[C@H](CCCNC(=N)N)C(=O)N[C@H](CC(C)C)C(=O)N[C@H](Cc1c[nH]cn1)C(=O)N[C@H](C)C(=O)N[C@H](CCCCN)C(=O)N[C@H](Cc1c[nH]c2ccccc12)C(=O)N[C@H](CC(C)C)C(=O)N[C@H](CCCNC(=N)N)C(=O)N[C@H](CCCCN)C(=O)O [105 D] (H-[dR][dK][dW][dR][dA][dM][dI][dR][dL][dH][dA][dK][dW][dL][dR][dK]-OH)
[5]
  Minimum inhibitory concentration (MIC), S. aureus COL + 4 μg/ml Ertapenem: 2 µg/mL
[6]
  Minimum inhibitory concentration (MIC), S. aureus RN4220: 16 µg/mL

## CC[C@@H](C)[C@@H](NC(=O)[C@@H](CCSC)NC(=O)[C@@H](C)NC(=O)[C@@H](CCCNC(=N)N)NC(=O)[C@@H](Cc1c[nH]c2ccccc12)NC(=O)[C@@H](CCCCN)NC(=O)[C@H](N)CCCNC(=N)N)C(=O)N[C@H](CCCNC(=N)N)C(=O)N[C@H](CC(C)C)C(=O)N[C@H](Cc1c[nH]cn1)C(=O)N[C@H](C)C(=O)N[C@H](CCCCN)C(=O)N[C@H](CCCNC(=N)N)C(=O)N[C@H](CC(C)C)C(=O)N[C@H](CCCNC(=N)N)C(=O)N[C@H](CCCCN)C(=O)O [104 D] (H-[dR][dK][dW][dR][dA][dM][dI][dR][dL][dH][dA][dK][dR][dL][dR][dK]-OH)
[5]
  Minimum inhibitory concentration (MIC), S. aureus COL + 4 μg/ml Ertapenem: 4 µg/mL
[6]
  Minimum inhibitory concentration (MIC), S. aureus RN4220: 64 µg/mL

## CC(C)C[C@H](NC(=O)[C@H](CCCCN)NC(=O)[C@H](CCCCN)NC(=O)[C@H](Cc1ccccc1)NC(=O)[C@H](CC(C)C)NC(=O)[C@H](Cc1c[nH]c2ccccc12)NC(=O)[C@H](CCCNC(=N)N)NC(=O)[C@H](Cc1c[nH]c2ccccc12)NC(=O)[C@H](CCCCN)NC(=O)[C@H](CCCNC(=N)N)NC(=O)[C@@H](N)CCCCN)C(=O)O [Compound 310] (H-KRKWRWLFKKL-OH)
[5]
  Minimum inhibitory concentration (MIC), S. aureus COL + 4 μg/ml Ertapenem: 0.06 µg/mL
[6]
  Minimum inhibitory concentration (MIC), S. aureus RN4220: >64 µg/mL

## CC[C@H](C)[C@H](NC(=O)[C@H](Cc1c[nH]c2ccccc12)NC(=O)[C@@H](N)CCCCN)C(=O)N[C@H](C(=O)N[C@@H](Cc1c[nH]c2ccccc12)C(=O)N[C@@H](CCCNC(=N)N)C(=O)N[C@@H](Cc1c[nH]c2ccccc12)C(=O)N[C@@H](CCCNC(=N)N)C(=O)N[C@@H](Cc1ccccc1)C(=O)N[C@@H](CCCCN)C(=O)N[C@@H](CCCNC(=N)N)C(=O)O)C(C)C [Compound 201] (H-KWIVWRWRFKR-OH)
[5]
  Minimum inhibitory concentration (MIC), S. aureus COL + 4 μg/ml Ertapenem: 0.5 µg/mL
[6]
  Minimum inhibitory concentration (MIC), S. aureus RN4220: 64 µg/mL

## CC(C)C[C@@H](NC(=O)[C@@H](CCCCN)NC(=O)[C@@H](CCCCN)NC(=O)[C@@H](Cc1ccccc1)NC(=O)[C@@H](CC(C)C)NC(=O)[C@@H](Cc1c[nH]c2ccccc12)NC(=O)[C@@H](CCCNC(=N)N)NC(=O)[C@@H](Cc1c[nH]c2ccccc12)NC(=O)[C@@H](CCCCN)NC(=O)[C@@H](CCCNC(=N)N)NC(=O)[C@H](N)CCCCN)C(=O)O [310 D] (H-[dK][dR][dK][dW][dR][dW][dL][dF][dK][dK][dL]-OH)
[5]
  Minimum inhibitory concentration (MIC), S. aureus COL + 4 μg/ml Ertapenem: <0.03 µg/mL
[6]
  Minimum inhibitory concentration (MIC), S. aureus RN4220: >64 µg/mL

## C[C@@H]1[C@H](O)[C@@H](C)/C=C/C=C/C=C/C=C/C=C/C=C/C=C/[C@H](O[C@@H]2O[C@H](C)[C@@H](O)[C@H](N)[C@@H]2O)C[C@@H]2O[C@](O)(C[C@@H](O)C[C@@H](O)[C@H](O)CC[C@@H](O)C[C@@H](O)CC(=O)O[C@H]1C)C[C@H](O)[C@H]2C(=O)O [Amphotericin B, reference compound]
[1]
  Minimum inhibitory concentration: 2
[2]; [7]
  Minimum inhibitory concentration: 2
[2]; [8]
  Minimum inhibitory concentration: 2
[2]; [9]
  Minimum inhibitory concentration: 2
[2]; [10]
  Minimum inhibitory concentration: 2
[3]; [11]
  Minimum inhibitory concentration: 2
[3]; [12]
  Minimum inhibitory concentration: 0.5
[3]; [13]
  Minimum inhibitory concentration: 2
[3]; [14]
  Minimum inhibitory concentration: 2
[3]; [15]
  Minimum inhibitory concentration: 2
[4]; [16]
  Minimum inhibitory concentration: 4
[4]; [17]
  Minimum inhibitory concentration: 4
[4]; [18]
  Minimum inhibitory concentration: 2
[4]; [19]
  Minimum inhibitory concentration: 4

## CC(C)C[C@@H](NC(=O)[C@H](N)CCCNC(=N)N)C(=O)N[C@H](CCCCN)C(=O)N[C@H](Cc1c[nH]c2ccccc12)C(=O)N[C@H](Cc1ccccc1)C(=O)N[C@H](CC(C)C)C(=O)N[C@H](CC(C)C)C(=O)N[C@H](Cc1ccccc1)C(=O)N[C@H](CCCNC(=N)N)C(=O)N[C@H](CCCCN)C(=O)N[C@H](CCCNC(=N)N)C(=O)O [308 D] (H-[dR][dL][dK][dW][dF][dL][dL][dF][dR][dK][dR]-OH)
[5]
  Minimum inhibitory concentration (MIC), S. aureus COL + 4 μg/ml Ertapenem: 1 µg/mL
[6]
  Minimum inhibitory concentration (MIC), S. aureus RN4220: 4 µg/mL
